According to patent US20180243273A1, “Composition for Intravesical Administration for Treating Bladder Pain” (priority 2017, published 2018):

Assay: Preliminary stability study of API intravesical solution
Assay type: physicochemical
Experimental: Two dose strengths were specified: 40 μg/mL and 150 μg/mL API. These concentrations were defined in order to stay below 80% of the saturated solubility values obtained during previous experiments. To enable dissolution of the API, 0.5 wt.-% and 2 wt.-% vitamin E TPGS were used for 40 μg/mL and 150 μg/mL API, respectively (24 h stirring). The compositions were treated with nitrogen and stored at 5° C., 25° C. and 40° C.

[1] = vitamin E TPGS 0.5%, API 40 μg/mL, Asc. 1%, 6° C., 1 m
[2] = vitamin E TPGS 0.5%, API 40 μg/mL, Asc. 1%, 6° C., 2 w
[3] = vitamin E TPGS 0.5%, API 40 μg/mL, Asc. 1%, t = 0
[4] = vitamin E TPGS 0.5%, API 40 μg/mL, no Asc., treated with nitrogen, 6° C., 1 m
[5] = vitamin E TPGS 0.5%, API 40 μg/mL, no Asc., treated with nitrogen, 6° C., 2 w
[6] = vitamin E TPGS 0.5%, API 40 μg/mL, no Asc., treated with nitrogen, 6° C., 3 m
[7] = vitamin E TPGS 0.5%, API 40 μg/mL, no Asc., treated with nitrogen, 25° C., 1 m
[8] = vitamin E TPGS 0.5%, API 40 μg/mL, no Asc., treated with nitrogen, 25° C., 2 w
[9] = vitamin E TPGS 0.5%, API 40 μg/mL, no Asc., treated with nitrogen, 25° C., 3 m
[10] = vitamin E TPGS 0.5%, API 40 μg/mL, no Asc., treated with nitrogen, 40° C., 1 m
[11] = vitamin E TPGS 0.5%, API 40 μg/mL, no Asc., treated with nitrogen, 40° C., 2 w
[12] = vitamin E TPGS 0.5%, API 40 μg/mL, no Asc., treated with nitrogen, 40° C., 3 m
[13] = vitamin E TPGS 0.5%, API 40 μg/mL, no Asc., treated with nitrogen, t = 0
[14] = vitamin E TPGS 2%, API 150 μg/mL, Asc. 1%, 6° C., 1 m
[15] = vitamin E TPGS 2%, API 150 μg/mL, Asc. 1%, 6° C., 2 w
[16] = vitamin E TPGS 2%, API 150 μg/mL, Asc. 1%, t = 0
[17] = vitamin E TPGS 2%, API 150 μg/mL, no Asc., treated with nitrogen, 6° C., 1 m
[18] = vitamin E TPGS 2%, API 150 μg/mL, no Asc., treated with nitrogen, 6° C., 2 w
[19] = vitamin E TPGS 2%, API 150 μg/mL, no Asc., treated with nitrogen, 6° C., 3 m
[20] = vitamin E TPGS 2%, API 150 μg/mL, no Asc., treated with nitrogen, 25° C., 1 m
[21] = vitamin E TPGS 2%, API 150 μg/mL, no Asc., treated with nitrogen, 25° C., 2 w

With `CN(C)[C@]1(c2cccc(F)c2)CC[C@]2(CC1)c1[nH]c3ccccc3c1CCN2C(=O)/C=C/c1ccccc1` [API, cis-(E)-4-(3-fluorophenyl)-2′,3′,4′,9′-tetrahydro-N,N-dimethyl-2′-(1-oxo-3-phenyl-2-propenyl)-spiro[cyclohexane-1,1′[1H]-pyrido[3,4-b]indol]-4-amine] the “assay values over storage” value (all investigated compositions, 3 months, stored at 6° C. or 25° C.) was “remained stable”, the assay over storage (stored at 40° C.) was “decreased considerably” and the Assay [1] was 70.25 % L.S. For the same molecule, the Impurities [1] was 1.00 % (a/a), the Assay [2] was 70.56 % L.S and the Impurities [2] was 0.57 % (a/a). For the same molecule, the Assay [3] was 70.39 % L.S, the Impurities [3] was 0.57 % (a/a) and the Assay [4] was 54.62 % L.S. For the same molecule, the Impurities [4] was 0.58 % (a/a), the Assay [5] was 54.81 % L.S and the Impurities [5] was 0.08 % (a/a). For the same molecule, the Assay [6] was 55.05 % L.S, the Impurities [6] was 0.69 % (a/a) and the Assay [7] was 54.98 % L.S. For the same molecule, the Impurities [7] was 0.86 % (a/a), the Assay [8] was 54.71 % L.S and the Impurities [8] was 0.97 % (a/a). The Assay [9] was 54.50 % L.S, the Impurities [9] was 1.42 % (a/a) and the Assay [10] was 54.06 % L.S. The Impurities [10] was 1.78 % (a/a), the Assay [11] was 54.61 % L.S and the Impurities [11] was 1.04 % (a/a). For the same molecule, the Assay [12] was 52.07 % L.S, the Impurities [12] was 4.94 % (a/a) and the Assay [13] was 54.58 % L.S. For the same molecule, the Impurities [13] was 0.55 % (a/a), the Assay [14] was 67.68 % L.S and the Impurities [14] was 1.16 % (a/a). For the same molecule, the Assay [15] was 68.11 % L.S, the Impurities [15] was 0.68 % (a/a) and the Assay [16] was 68.21 % L.S. The Impurities [16] was 0.68 % (a/a), the Assay [17] was 61.93 % L.S and the Impurities [17] was 0.72 % (a/a). The Assay [18] was 62.29 % L.S, the Impurities [18] was 0.49 % (a/a) and the Assay [19] was 62.05 % L.S. The Impurities [19] was 0.72 % (a/a), the Assay [20] was 62.07 % L.S and the Impurities [20] was 1.00 % (a/a). The Assay [21] was 61.97 % L.S, the Impurities [21] was 0.68 % (a/a) and the Assay (vitamin E TPGS 2%, API 150 μg/mL, no Asc., treated with nitrogen, 25° C., 3 m) was 61.96 % L.S.
